Values of other authors as cited in paper PMC6582641 (Organic & biomolecular chemistry, 2019).

Assays:
TRPC4 = settings: read-out: IC50 TRPC4
TRPC5 = settings: read-out: IC50 towards TRPC5

Row | Compound | anxiolytic and antidepressant effects (mice) | binding activity toward TRPM8 (TRPM (melastatin) 8) | binding activity toward TRPV1 (TRPV (vanilloid) 1) | IC50 (TRPC4) [nM] | binding activity toward TRPV4 (TRPV (vanilloid) 4) | binding activity toward TRPC3 (TRPC3) | binding activity toward TRPM2 (TRPM (melastatin) 2) | binding activity toward TRPA1 (TRPA (ankyrin) 1) | binding activity toward TRPC6 (TRPC6) | IC50 (TRPC5) [nM]
1 | Cn1c(=O)n(CCCO)c(=O)c2c1nc(Oc1cccc(Cl)c1)n2Cc1ccc(Cl)cc1 [HC070, 7-(4-Chlorobenzyl)-8-(3-Chlorophenoxy)-1-(3-Hydroxypropyl)-3-Methyl-3,7-Dihydro-1H-Purine-2,6-Dione] | produces anxiolytic and antidepressant effects in mice | – | – | – | – | – | – | – | – | –
2 | Cn1c(=O)n(CCCO)c(=O)c2c1nc(Oc1cccc(OC(F)(F)F)c1)n2Cc1ccc(Cl)cc1 [HC608, 7-(4-Chlorobenzyl)-1-(3-Hydroxypropyl)-3-Methyl-8-(3-(Trifluoromethoxy)Phenoxy)-3,7-Dihydro-1H-Purine-2,6-Dione] | – | no binding activities | no binding activities | 32.5 | no binding activities | no binding activities | no binding activities | no binding activities | no binding activities | 6.2
